Measurements published in patent US10576144B2, “Amino acid and peptide conjugates and conjugation process” (AUCKLAND UNISERVICES LIMITED, priority 2014, dated 2020).
Residues, ends and D or L forms follow the SMILES beside them. *: point of attachment. Ethyl(2-palmitoyloxy) = CCCCCCCCCCCCCCCC(=O)OCC*; Palmitoyl = CCCCCCCCCCCCCCCC(=O)*

Assays:
CD4+ T cell clone 1D6 = test: CD4+ T cell clone activation assay, NY-ESO-1 118-143 constructs, autologous LCL as APC; format: cell-based, human; conditions: LCL pulsed with construct; 147 tested +/−P3C; 116 and 115 titratable (FIG. 13)
Procedure: Epstein-Barr Virus (“EBV”)-producing B95-8 MM cells were grown in RPMI 1640 supplemented with Glutamax, Penicillin/Streptomycin and 10% v/v fetal bovine serum (“RF10”, all reagents from Invitrogen) in T75 flasks (BD Biosciences). EBV-containing medium was collected and centrifuged to pellet non-adherent cells, and the EBV-containing supernatant then filter-sterilised (0.22 μm). 10×10^6 donor Peripheral Blood Mononuclear Cells (“PBMC”) were suspended in 1.5 ml RF10 in aT25 flask (BD Biosciences). […] Flasks were monitored for outgrowth of B cell LCL, typically over 4-6 weeks, with transfer to a T75 flask (BD Biosciences) when required. […]
Data acquisition was performed using a BD FACSAria II with FACSDiva software, and data analysis was performed using FlowJo software (Treestar). Data were presented as the median fluorescence intensity (MFI)+SD of CD25 and CD134 expression on live clonal cells. […]

CD8+ T cell clone 1C11 = test: CD8+ T cell clone activation assay, NY-ESO-1 118-143 constructs, autologous LCL as APC; format: cell-based, human
Procedure: Human CD4+ and CD8+ T cell clones were maintained at a concentration of 1-3×10^6/ml in RPMI 1640 supplemented with Glutamax, Penicillin/Streptomycin and 5% v/v human serum (“RS5”, all reagents from Life Technologie). Media was refreshed 50% v/v twice weekly. RS5 for CD4+ T cell clones was supplemented with IL-7 and IL-21, and RS5 for CD8+ T cell clones was supplemented with IL-7+IL-15 (all cytokines from PeproTech, used at a final concentration of 5 ng/ml).
Epstein-Barr Virus (“EBV”)-producing B95-8 MM cells were grown in RPMI 1640 supplemented with Glutamax, Penicillin/Streptomycin and 10% v/v fetal bovine serum (“RF10”, all reagents from Invitrogen) in T75 flasks (BD Biosciences). EBV-containing medium was collected and centrifuged to pellet non-adherent cells, and the EBV-containing supernatant then filter-sterilised (0.22 μm). 10×10^6 donor Peripheral Blood Mononuclear Cells (“PBMC”) were suspended in 1.5 ml RF10 in aT25 flask (BD Biosciences). 2.5 ml B95-8 cell culture supernatant was added and cells incubated for 2 hours. 1 ml fresh RF10 containing 5% v/v Phytohemaglutanin (“PHA”, Gibco) was then added (1% v/v final concentration). Flasks were monitored for outgrowth of B cell LCL, typically over 4-6 weeks, with transfer to a T75 flask (BD Biosciences) when required. LCL lines were cryopreserved and working stocks maintained in RF10 at 0.5-1.5×10^6/ml.
Donor LCL or MoDC (also referred to herein as antigen presenting cells or “APC”) were incubated for 16 h in RF10+ peptide/construct at desired concentration. In samples where Pam3Cys (“P3C”) and peptide moieties were both present but unconjugated, LCL were pre-treated with P3C for 30 minutes, and media then refreshed with RF10 containing both P3C and peptide. Untreated APC were incubated in RF10 only. APC/construct incubation was performed in 96 well plates (U-bottom, BD Biosciences) or in 48wp (flat bottom, BD Biosciences) depending of the nature of the assay and the numbers of APC required per treatment. Following incubation, APC were washed with RPMI 1640 4 times, to remove unbound construct/P3C. […]

human monocytes = test: Activation of human monocytes in whole blood (CD80 up-regulation, flow cytometry); format: cell-based
Procedure: 100 μl of heparinised whole blood (WB) was incubated with 100 nM, 1 μM and 10 μM of each compound, in duplicate, and incubated overnight at 37° C. in a 5% CO2 humidified incubator. […] EMC Microcollections) was used as a positive control. To detect activation of monocytes, WB samples were stained with anti-CD14-FITC, anti-HLA-DR-Alexa700, anti-CD80-PE-Cy7, anti-CD40-PE, anti-CD86-APC, anti-CD16-APC-Cy7 (all from Biolegend) for 20 mins at RT, protected from light. Following incubation, 2 ml of BD FACS lyse (BD Biosciences) was added, incubated for 15 mins at RT, then washed twice with ice cold wash buffer (PBS, 1% Human Serum). Data acquisition was performed on a BD FACS Aria II (Becton Dickinson) and analysed using FlowJo software version 7.6.5 (TreeStar). CD80 receptor expression on monocytes was detected by gating on CD14+ HLADR+ cells.

Molecule: 147 (VPGVLLKEFTVSGNILTIRLTAADHR; C-terminal acid) [compound 147]
- response of clone 1D6 (CD4+ T cell clone 1D6): does not respond
- T cell activation (CD8+ T cell clone 1C11; 100 nM): No or negligible T cell activation
- T cell activation (CD8+ T cell clone 1C11; 1 μM, with exogenous P3C): 75%
- T cell activation (CD8+ T cell clone 1C11; 1 μM, without exogenous P3C): 60%

Molecule: CCCCCCCCCCCCCCCC(=O)SC[C@H](N)C(=O)N[C@@H](CO)C(=O)N[C@@H](CCCCN)C(=O)N[C@@H](CCCCN)C(=O)N[C@@H](CCCCN)C(=O)N[C@@H](CCCCN)C(N)=O [compound 20] (H-C(Palmitoyl)SKKKK-NH2)
- potency of CD80 up-regulation compared to 22 and 26 (human monocytes; in three donors): lower potency than 22 and 26

Molecule: CCCCCCCCCCCCCCCC(=O)OCCSC[C@H](NC(C)=O)C(=O)N[C@@H](CO)C(=O)N[C@@H](CCCCN)C(=O)N[C@@H](CCCCN)C(=O)N[C@@H](CCCCN)C(=O)N[C@@H](CCCCN)C(N)=O [compound 22] (Ac-C(Ethyl(2-palmitoyloxy))SKKKK-NH2)
- potency of CD80 up-regulation compared to Pam3CSK4 (human monocytes; 10 μM dose, in most donors): equivalent potency to Pam3CSK4
- up-regulation of expression of CD80 on monocytes (human monocytes; all doses tested (100 nM, 1 μM, 10 μM), whole blood of five donors, overnight): strongly upregulated expression of CD80
